# Data published in ChEMBL document CHEMBL5247639, “Fused-ring α-pyrones from intramolecular C-H activation and their lipids-lowering activity associated with LXR-IDOL-LDLR axis regulation” (2022).
# Active and inactive are the calls of the source. The rule behind the calls is not given here.
# Columns and labels:
# HepG2 [1] = experiment: Upregulation of LDLR protein level in human HepG2 cells at 5 uM incubated for 24 hrs by Western blot analysis; assay type: functional, cell-based
# HepG2 [2] = experiment: Induction of LDL uptake in human HepG2 cells at 5 uM incubated for 24 hrs by microplate reader analysis; assay type: functional, cell-based
# [3] = Downregulation of IDOL protein level in human HepG2 cells at 5 uM incubated for 24 hrs by Western blot analysis relative to control; assay type: functional
# Syrian golden hamster [4] = experiment: Hypolipidemic activity in high fat diet induced Syrian golden hamster assessed as decrease in low-density lipoprotein cholesterol level at 30 mg/kg,ip administered once daily for 21 days by automatic biochemical analyzer; assay type: functional, organism-based; settings: Mesocricetus auratus, time 21.0 day
# HepG2 [5] = experiment: Inhibition of LXR activity in human HepG2 cells assessed as downregulation of SREBP-1c level at 5 uM incubated for 24 hrs by Q-PCR analysis; assay type: cell-based
# HepG2 [6] = experiment: Downregulation of LXRalpha protein level in nucleus of human HepG2 at 5 uM incubated for 24 hrs by Western blot analysis; assay type: functional, cell-based
# HepG2 [7] = experiment: Downregulation of IDOL mRNA level in human HepG2 cells at 5 uM incubated for 24 hrs by Q-PCR analysis; assay type: functional, cell-based
# HepG2 [8] = experiment: Inhibition of LXR activity in human HepG2 cells assessed as downregulation of ABCA1 level at 5 uM incubated for 24 hrs by Q-PCR analysis; assay type: cell-based
# [9] = Upregulation of LDLR protein level in human HepG2 cells at 5 uM incubated for 24 hrs by Western blot analysis relative to control; assay type: functional
# Syrian golden hamster [10] = experiment: Hypolipidemic activity in high fat diet induced Syrian golden hamster assessed as decrease in triglyceride level at 30 mg/kg,ip administered once daily for 21 days by automatic biochemical analyzer; assay type: functional, organism-based; settings: Mesocricetus auratus, time 21.0 day
# Syrian golden hamster [11] = experiment: Hypolipidemic activity in high fat diet induced Syrian golden hamster assessed as decrease in total cholesterol level at 30 mg/kg,ip administered once daily for 21 days by automatic biochemical analyzer; assay type: functional, organism-based; settings: Mesocricetus auratus, time 21.0 day
compound,measurement,setting,value
COc1ccccc1-c1oc(=O)cc2c1CCCC2,Activity,HepG2 [1],inactive
same,Activity,HepG2 [2],Active
O=c1cc2c(c(-c3cc4ccccc4o3)o1)CCCC2,Activity,HepG2 [2],Active
O=c1cc2c(c(-c3ccc(-c4ccccc4)s3)o1)CCCC2,Activity,HepG2 [2],Active
O=c1oc(-c2ccccc2)c2c3c1c1ccccc1n3CCC2,Activity,[3],28%
same,Activity,Syrian golden hamster [4],Active
same,Activity,HepG2 [2],Active
same,inhibition,HepG2 [5],Active
same,Activity,HepG2 [6],Active
same,Activity,HepG2 [7],Active
same,inhibition,HepG2 [8],Active
same,Activity,[9],160%
same,Activity,Syrian golden hamster [10],Active
same,Activity,Syrian golden hamster [11],Active
O=c1cc2c(c(-c3cccs3)o1)CCCC2,Activity,[3],42%
same,Activity,HepG2 [2],Active
same,inhibition,HepG2 [5],Active
same,Activity,HepG2 [6],Active
same,Activity,HepG2 [7],Active
same,inhibition,HepG2 [8],Active
same,Activity,[9],238%
O=c1oc(-c2cccs2)c2c3c1c1ccccc1n3CCC2,Activity,HepG2 [2],Active
O=c1cc2c(c(-c3ccc(-c4cccs4)s3)o1)CCCC2,Activity,HepG2 [2],Active
O=c1cc2c(c(-c3cc4ccccc4s3)o1)CCCC2,Activity,HepG2 [2],Active
